Results reported in article PMC7323874, “Vancomycin Resistance Is Overcome by Conjugation of Polycationic Peptides” (Angewandte Chemie (International Ed. in English), 2020).

How the values were obtained:
[1] = test system: E. faecium UL602570*; experiment: microbe, parasite or virus in culture; type: cell-based
Method: Antimicrobial testing – Microdilution
Antimicrobial testing was performed according to CLSI and EUCAST guidelines in microdilution.8-10 Therefore, all tested substances as well as controls were dissolved in water in different concentrations and serially diluted in MHB II (cation adjusted) on the 96-well plate. A logarithmic growing, overnight culture of the respective bacterial strain was used and adjusted to a McFarland corresponding to 1 × 10^8 cfu/ml. Afterwards the bacterial suspension was diluted to 1 ×10^6 cfu/ml and loaded on the 96-well polypropylene plates, resulting in a final bacterial concentration of 5 × 10^5 cfu/ml. After an incubation at 35 ± 1 °C for 18-20 hours (re-controlled after 24 hours) the MIC was determined as the lowest concentration without visible growth as described previously.11 For direct comparison of the tested substances, all results were calculated in mg/ml and mol/ml afterwards. […]
Resistance development in S. aureus was determined by passaging bacteria in increasing amounts of vancomycin, FU002 or, as control, fusidic acid. In principle, tubes with twofold dilutions of the compounds in 1 ml Muller Hinton broth were inoculated 1:100 with bacterial suspension. […]
For the validation of possible side effects provoked by the conjugates, the cytotoxic effect of the lead candidate FU002 on human cells was assessed in a colorimetric viability assay. […]

[2] = Molecular imaging (PET, scintigraphy) and biodistribution of radiolabeled compounds; type: in vivo, female Wistar rats; details: for scintigraphy, distribution and excretion: i.v.
Method: Biodistribution and pharmacokinetic studies
The biodistribution and pharmacokinetic studies were performed with radiolabeled (124I/125I) compounds. For this radiolabeling strategy, a D-tyrosine-modified derivative was synthesized, which enabled the […] substitution. The D-tyrosine was located at the N-terminus of the respective peptide. Vancomycin was radiolabeled without any further structural modification. For radiolabeling, a 1 mM stock solution of phosphate buffer/dimethyl sulfoxide was prepared as described previously by Uhl et al.12 The required amount of radioactive iodine-124 (124I) or rather iodine-125 (125I) was added to a mixture of 25 µl of the stock solution and 25 µl of a phosphate buffer (0.25 mM; pH 7.5). Radiolabeling was performed using the chloramine T method as previously described by Crim et al.13 The labeled compound was purified by semi-preparative HPLC. Analysis was done by radio-HPLC (Agilent 1100 series) using a Chromolith® Performance RP-18e, 100–3 mm column applying a linear gradient of 0.1% TFA in water (eluent A) to 0.1% TFA in acetonitrile (eluent B) within 5 min; flow rate 2 ml/min; UV absorbance λ = 214 nm; γ-detection. The animal trials were approved by the Animal Care and Use committees at the Regierungspräsidium Karlsruhe, Germany. Adult, female, Wistar rats (200 – 250 g) were purchased from Janvier Labs (Le Genest-Saint-Isle, France). The animals were anaesthetized by isoflurane inhalation and appropriate amounts of the 124I/125I labelled peptides, dissolved in 100 µl of 0.9% NaCl were injected into the tail vein. For PET-imaging, an Inveon small animal PET scanner (Siemens) was used. Therefore, the animals were sacrificed 10 min or 60 min after injection of the radiolabeled compound and images were taken afterwards. The scintigraphic images were obtained using a γ-camera (Gamma Imager, Biospace, France). Cumulative images from 0–10 min, 60–70 min and 120–130 min after injection, were taken. For the biodistribution studies, the animals were sacrificed at certain time points, the organs were removed and weighed and the radioactivity of each sample was measured using a Cobra Auto γ-Counter, (Packard Bioscience, USA) in comparison with standards. The tissue-associated activity was related to the total injected dose (ID) and expressed as a percentage of the total injected dose per gram of tissue (%ID/g).
In vivo infection experiments
Animal studies were approved by the local government of Lower Franconia, Germany (approval number 55.2-2532-2-57) and performed in strict accordance with the guidelines for animal care and experimentation of German Animal Protection Law and the DIRECTIVE […]
For the in vivo experiments, we applied S. aureus strain USA300 LAC* lux, which was constructed by transducing the luxABCDE operon from S. aureus Xen29 (PerkinElmer, Waltham, MA, USA) with phage φ11 into S. aureus LAC* (AH2163).14 Overnight cultures of S. aureus USA300 LAC* lux in BHI medium were diluted to a final OD600 nm of 0.05 in 50 ml fresh BHI medium and grown for 3.5 hours at 37 °C. After centrifugation, the cell pellet was resuspended in BHI with 20 % glycerol, aliquoted and stored at -80 °C. For the generation of in vivo infection inocula, aliquots were thawed and washed twice with PBS. The desired bacterial concentration (5 x 10^7 CFU/100 µl) was then adjusted based on the respective OD600 nm values. A sample of the infection inoculum was plated on TSB agar plates in order to control the infection dose.
Female Balb/c mice (6 weeks, Janvier Labs, Le Genest-Saint-Isle, France) were used for all experiments.
Mice were infected by intravenous application of the bacterial inoculum via the tail vein. Treatment started at 2 hours p.i. and following doses were applied every 12 hours. The vancomycin group received 30 mg/kg body weight/ per day, the FU002 group received 56.4 mg/kg body weight/per day, the control group received equal amounts of sterile PBS at the respective time points. The mice were […]

[3] = 125I-labeled compounds (FU002 as 125I-FU002y), 10 min post injection
[4] = 125I-labeled compounds (FU002 as D-Tyr derivative), 60 min post injection

SMILES | MIC of E. faecium UL602570* ([1]; comparison of conjugate, equimolar non-covalent mixture and vancomycin) [µg/mL] | scintigraphy, distribution and excretion [2, 3] | scintigraphy, distribution and excretion [2, 4] | biodistribution, organ uptake ([2]; 125I-labeled, 10 min post injection, compared with vancomycin) | biodistribution, retention in organ ([2]; 125I-labeled, after 1 hour, compared with vancomycin) | MIC ([1]; Enterococcus faecium, read-out: MIC of E. faecium UL602570*) [µg/mL] | PET imaging, distribution and excretion ([2]; 124I-labeled compounds, i.v. tail vein, 10 min post injection)
CC(C)C[C@H](C(=O)N[C@H]1C(=O)N[C@@H](CC(N)=O)C(=O)N[C@H]2C(=O)N[C@H]3C(=O)N[C@H](C(=O)N[C@H](C(=O)O)c4cc(O)cc(O)c4-c4cc3ccc4O)[C@H](O)c3ccc(c(Cl)c3)Oc3cc2cc(c3O[C@@H]2O[C@H](CO)[C@@H](O)[C@H](O)[C@H]2O[C@H]2C[C@](C)(N)[C@H](O)[C@H](C)O2)Oc2ccc(cc2Cl)[C@H]1O)N(C)C(=O)C1CCC(CN2C(=O)CC(SC[C@H](NC(=O)[C@H](CCCNC(=N)N)NC(=O)[C@H](CCCNC(=N)N)NC(=O)[C@H](CCCNC(=N)N)NC(=O)[C@H](CCCNC(=N)N)NC(=O)[C@H](CCCNC(=N)N)NC(=O)[C@@H](N)CCCNC(=N)N)C(N)=O)C2=O)CC1 (stereo partly drawn) [FU002] | 1 | directs in the liver and the kidneys | much slower excretion | much higher organ uptake | remains much longer in the corresponding organ | – | –
CN[C@H](CC(C)C)C(=O)N[C@H]1C(=O)N[C@@H](CC(N)=O)C(=O)N[C@H]2C(=O)N[C@H]3C(=O)N[C@H](C(=O)N[C@H](C(=O)O)c4cc(O)cc(O)c4-c4cc3ccc4O)[C@H](O)c3ccc(c(Cl)c3)Oc3cc2cc(c3O[C@@H]2O[C@H](CO)[C@@H](O)[C@H](O)[C@H]2O[C@H]2C[C@](C)(N)[C@H](O)[C@H](C)O2)Oc2ccc(cc2Cl)[C@H]1O [vancomycin] | – | fast, renal excretion | almost completely excreted and only found in the bladder | – | – | > 64 | renal excretion
